# Source: PubChem BioAssay AID1259407 (Chemical Carcinogenesis Research Information System (CCRIS), 2018)
# The source made the active and inactive calls. No rule for the calls is given here.
# Test system: CCRIS mutagenicity, Ames/micronucleus/aberration tests
# Assay: CCRIS mutagenicity studies
# [1] = Test System: AMES SALMONELLA TYPHIMURIUM, Strain/Indicator: TA98, Metabolic Activation: NONE, Method: PREINCUBATION
# [2] = Test System: AMES SALMONELLA TYPHIMURIUM, Strain/Indicator: TA100, Metabolic Activation: NONE, Method: PREINCUBATION
# [3] = Test System: AMES SALMONELLA TYPHIMURIUM, Strain/Indicator: TA1535, Metabolic Activation: NONE, Method: PREINCUBATION
# [4] = Test System: AMES SALMONELLA TYPHIMURIUM, Strain/Indicator: TA1537, Metabolic Activation: NONE, Method: PREINCUBATION
# [5] = Test System: AMES SALMONELLA TYPHIMURIUM, Strain/Indicator: TA1538, Metabolic Activation: NONE, Method: PREINCUBATION
compound,measurement,setting,value
O=C1C=C(Nc2ccccc2)C(=O)c2ccccc21,mutagenic call,"Test System: AMES SALMONELLA TYPHIMURIUM, Strain/Indicator: TA97, Metabolic Activation: NONE, Method: PREINCUBATION",inactive; negative
same,mutagenic call,"Test System: AMES SALMONELLA TYPHIMURIUM, Strain/Indicator: TA97, Metabolic Activation: RAT, LIVER, S-9, PHENOBARBITAL AND 5,6-BENZOFLAVONE, Method: PREINCUBATION",active; positive
same,mutagenic call,[1],inactive; negative
same,mutagenic call,"Test System: AMES SALMONELLA TYPHIMURIUM, Strain/Indicator: TA98, Metabolic Activation: RAT, LIVER, S-9, PHENOBARBITAL AND 5,6-BENZOFLAVONE, Method: PREINCUBATION",active; positive
same,mutagenic call,[2],inactive; negative
same,mutagenic call,"Test System: AMES SALMONELLA TYPHIMURIUM, Strain/Indicator: TA100, Metabolic Activation: RAT, LIVER, S-9, PHENOBARBITAL AND 5,6-BENZOFLAVONE, Method: PREINCUBATION",inactive; negative
same,mutagenic call,"Test System: AMES SALMONELLA TYPHIMURIUM, Strain/Indicator: TA102, Metabolic Activation: NONE, Method: PREINCUBATION",inactive; negative
same,mutagenic call,"Test System: AMES SALMONELLA TYPHIMURIUM, Strain/Indicator: TA102, Metabolic Activation: RAT, LIVER, S-9, PHENOBARBITAL AND 5,6-BENZOFLAVONE, Method: PREINCUBATION",inactive; negative
same,mutagenic call,"Test System: AMES SALMONELLA TYPHIMURIUM, Strain/Indicator: TA104, Metabolic Activation: NONE, Method: PREINCUBATION",inactive; negative
same,mutagenic call,"Test System: AMES SALMONELLA TYPHIMURIUM, Strain/Indicator: TA104, Metabolic Activation: RAT, LIVER, S-9, PHENOBARBITAL AND 5,6-BENZOFLAVONE, Method: PREINCUBATION",active; positive
same,mutagenic call,[3],inactive; negative
same,mutagenic call,"Test System: AMES SALMONELLA TYPHIMURIUM, Strain/Indicator: TA1535, Metabolic Activation: RAT, LIVER, S-9, PHENOBARBITAL AND 5,6-BENZOFLAVONE, Method: PREINCUBATION",inactive; negative
same,mutagenic call,[4],inactive; negative
same,mutagenic call,"Test System: AMES SALMONELLA TYPHIMURIUM, Strain/Indicator: TA1537, Metabolic Activation: RAT, LIVER, S-9, PHENOBARBITAL AND 5,6-BENZOFLAVONE, Method: PREINCUBATION",active; positive
same,mutagenic call,[5],inactive; negative
same,mutagenic call,"Test System: AMES SALMONELLA TYPHIMURIUM, Strain/Indicator: TA1538, Metabolic Activation: RAT, LIVER, S-9, PHENOBARBITAL AND 5,6-BENZOFLAVONE, Method: PREINCUBATION",active; positive
same,mutagenic call,"Test System: AMES SALMONELLA TYPHIMURIUM, Strain/Indicator: TA2637, Metabolic Activation: NONE, Method: PREINCUBATION",active; positive
same,mutagenic call,"Test System: AMES SALMONELLA TYPHIMURIUM, Strain/Indicator: TA2637, Metabolic Activation: RAT, LIVER, S-9, PHENOBARBITAL AND 5,6-BENZOFLAVONE, Method: PREINCUBATION",active; positive
O=C=Nc1cccc2c(N=C=O)cccc12,mutagenic call,[1],inactive; negative
same,mutagenic call,"Test System: AMES SALMONELLA TYPHIMURIUM, Strain/Indicator: TA98, Metabolic Activation: RAT LIVER S-9, PHENOBARBITAL AND BETA-NAPHTHOFLAVONE, Method: PREINCUBATION",inactive; negative
same,mutagenic call,[2],inactive; negative
same,mutagenic call,"Test System: AMES SALMONELLA TYPHIMURIUM, Strain/Indicator: TA100, Metabolic Activation: RAT LIVER S-9, PHENOBARBITAL AND BETA-NAPHTHOFLAVONE, Method: PREINCUBATION",inactive; negative
same,mutagenic call,[3],inactive; negative
same,mutagenic call,"Test System: AMES SALMONELLA TYPHIMURIUM, Strain/Indicator: TA1535, Metabolic Activation: RAT LIVER S-9, PHENOBARBITAL AND BETA-NAPHTHOFLAVONE, Method: PREINCUBATION",inactive; negative
same,mutagenic call,[4],inactive; negative
same,mutagenic call,"Test System: AMES SALMONELLA TYPHIMURIUM, Strain/Indicator: TA1537, Metabolic Activation: RAT LIVER S-9, PHENOBARBITAL AND BETA-NAPHTHOFLAVONE, Method: PREINCUBATION",inactive; negative
same,mutagenic call,[5],inactive; negative
same,mutagenic call,"Test System: AMES SALMONELLA TYPHIMURIUM, Strain/Indicator: TA1538, Metabolic Activation: RAT LIVER S-9, PHENOBARBITAL AND BETA-NAPHTHOFLAVONE, Method: PREINCUBATION",inactive; negative
same,mutagenic call,"Test System: E.COLI, Strain/Indicator: WP2UVRA, Metabolic Activation: NONE, Method: PREINCUBATION",inactive; negative
same,mutagenic call,"Test System: E.COLI, Strain/Indicator: WP2UVRA, Metabolic Activation: RAT LIVER S-9, PHENOBARBITAL AND BETA-NAPHTHOFLAVONE, Method: PREINCUBATION",inactive; negative
CC(=O)CCCCn1c(=O)c2c(ncn2C)n(C)c1=O,mutagenic call,"End Point: IN VITRO CHROMOSOMAL ABERRATIONS, Test System: HUMAN PERIPHERAL BLOOD LYMPHOCYTES, Metabolic Activation: NONE",active; positive (structural changes)
same,mutagenic call,"End Point: IN VITRO CHROMOSOMAL ABERRATIONS, Test System: V79 CELLS, Metabolic Activation: NONE",active; positive (structural changes)
same,mutagenic call,"End Point: IN VITRO MICRONUCLEUS, Test System: HUMAN PERIPHERAL BLOOD LYMPHOCYTES, Metabolic Activation: NONE",active; positive
same,mutagenic call,"End Point: IN VITRO MICRONUCLEUS, Test System: V79 CELLS, Metabolic Activation: NONE",active; positive
same,mutagenic call,"Test System: CHINESE HAMSTER V-79, Strain/Indicator: V-79 (HGPRT)/6-THIOGUANINE, Metabolic Activation: NONE",inactive; negative
same,mutagenic call,"Test System: CHINESE HAMSTER V-79, Strain/Indicator: V-79 (HGPRT)/6-THIOGUANINE, Metabolic Activation: S-9",inactive; negative
C(=NC1CCCCC1)=NC1CCCCC1,mutagenic call,"End Point: In vivo micronucleus, Test System: Bone marrow polychromatic erythrocytes, Species: Rat, Strain/Sex: F344/N/Male, Route: Intraperitoneal",inactive; negative
same,mutagenic call,"End Point: In vivo micronucleus, Test System: Peripheral blood normochromatic erythrocytes, Species: Mouse, Strain/Sex: B6C3F1/ Female, Route: Dermal",active; positive (significant increase in the frequency only at 3 mg/kg (p=0.003))
same,mutagenic call,"End Point: In vivo micronucleus, Test System: Peripheral blood normochromatic erythrocytes, Species: Mouse, Strain/Sex: B6C3F1/ Male, Route: Dermal",active; positive (results of trend test significant (p=0.003 but increase in frequency o
same,mutagenic call,"Test System: Ames Salmonella typhimurium, Strain/Indicator: TA97, Metabolic Activation: Hamster, liver S-9, Aroclor 1254, 10 and 30%, Method: Preincubation",inactive; negative
same,mutagenic call,"Test System: Ames Salmonella typhimurium, Strain/Indicator: TA97, Metabolic Activation: None, Method: Preincubation",inactive; negative
same,mutagenic call,"Test System: Ames Salmonella typhimurium, Strain/Indicator: TA97, Metabolic Activation: Rat, liver S-9, Aroclor 1254, 10 and 30%, Method: Preincubation",inactive; negative
same,mutagenic call,"Test System: Ames Salmonella typhimurium, Strain/Indicator: TA98, Metabolic Activation: Hamster, liver S-9, Aroclor 1254, 10 and 30%, Method: Preincubation",inactive; negative
same,mutagenic call,"Test System: Ames Salmonella typhimurium, Strain/Indicator: TA98, Metabolic Activation: None, Method: Preincubation",inactive; negative
same,mutagenic call,"Test System: Ames Salmonella typhimurium, Strain/Indicator: TA98, Metabolic Activation: Rat, liver S-9, Aroclor 1254, 10 and 30%, Method: Preincubation",inactive; negative
same,mutagenic call,"Test System: Ames Salmonella typhimurium, Strain/Indicator: TA100, Metabolic Activation: Hamster, liver S-9, Aroclor 1254, 10 and 30%, Method: Preincubation",inactive; negative
same,mutagenic call,"Test System: Ames Salmonella typhimurium, Strain/Indicator: TA100, Metabolic Activation: None, Method: Preincubation",inactive; negative
same,mutagenic call,"Test System: Ames Salmonella typhimurium, Strain/Indicator: TA100, Metabolic Activation: Rat, liver S-9, Aroclor 1254, 10 and 30%, Method: Preincubation",inactive; negative
same,mutagenic call,"Test System: Ames Salmonella typhimurium, Strain/Indicator: TA1535, Metabolic Activation: Hamster, liver, S-9, Aroclor 1254, 10 and 30%, Method: Preincubation",inactive; negative
same,mutagenic call,"Test System: Ames Salmonella typhimurium, Strain/Indicator: TA1535, Metabolic Activation: None, Method: Preincubation",inactive; negative
same,mutagenic call,"Test System: Ames Salmonella typhimurium, Strain/Indicator: TA1535, Metabolic Activation: Rat, liver, S-9, Aroclor 1254, 10 and 30%, Method: Preincubation",inactive; negative
O=C1C[C@@H]2NCCCNCCCCN(CCCN1)C(=O)[C@@H]1c3cc2ccc3O[C@H]1c1ccc(O)cc1,mutagenic call,"Test System: AMES SALMONELLA TYPHIMURIUM, Strain/Indicator: TA97A, Metabolic Activation: NONE",inactive; negative
same,mutagenic call,"Test System: AMES SALMONELLA TYPHIMURIUM, Strain/Indicator: TA97A, Metabolic Activation: RAT, LIVER, S-9",inactive; negative
same,mutagenic call,"Test System: AMES SALMONELLA TYPHIMURIUM, Strain/Indicator: TA98, Metabolic Activation: NONE",active; positive
same,mutagenic call,"Test System: AMES SALMONELLA TYPHIMURIUM, Strain/Indicator: TA98, Metabolic Activation: RAT, LIVER, S-9",active; positive
same,mutagenic call,"Test System: AMES SALMONELLA TYPHIMURIUM, Strain/Indicator: TA100, Metabolic Activation: NONE",active; positive
same,mutagenic call,"Test System: AMES SALMONELLA TYPHIMURIUM, Strain/Indicator: TA100, Metabolic Activation: RAT, LIVER, S-9",active; positive
